From US20040265840A1, “Preservation of RNA quality and content in tissue sections during immunohistochemistry” (priority 2002, published 2004)

Test system: RNase activity in a processed tissue
Assay: Inhibition of RNase activity in processed tissue during IHC staining
Settings: compared to other commercially available RNase inhibitors
Method: In one embodiment of the invention, the invention provides methods that preserve or maintain RNA quality and content in an IHC sample, such as for LCM, by use of a ribonucleoside vanadyl complex (RVC) as an RNase inhibitor. […] Use of RVCs is preferred in the practice of the invention over other RNase inhibitors and allows for performance of IHC staining of samples for LCM and downstream gene expression analysis.
The immunostaining was performed on frozen, acetone fixed, sections. RVCs (Ribonucleoside Vanadyl Complexes, Sigma catalog #R3380; Berger et al. Biochemistry 1979, 18:51431; Pukas et al., Biochemistry 1982, 21:46023) at 20 mM were added to all the acts of the staining including primary antibody solution, secondary antibody solution, and rinsing solutions (phosphate buffered saline or PBS). The processing was as follows:
IHC staining was performed on frozen, acetone fixed sections. All reagent solutions were prepared with nuclease free PBS containing a RVC RNase inhibitor and kept at +4° C. The slides were removed from −80° C. storage, 30 seconds are allowed for the condensation to disappear prior to fixing. The staining procedure was done at +4° C. by keeping the slides on a cold block through all parts of the procedure: […]

inhibition of RNase activity in a processed tissue: superior inhibition of RNase activity
Substance: Ribonucleoside Vanadyl Complexes [RVCs]
